Laboratory results: article PMC7126465 (Bioorganic & Medicinal Chemistry, 2017)
Read-outs that look alike come from different tables or passages of the source.

Experiments:
[1] = test system: human embryonic lung (HEL) cells; assay: Cytotoxicity, alteration of cell morphology; type: cell-based; details: microscopically detectable alteration of cell morphology
[2] = test system: herpesviruses (HSV, VZV, HCMV); assay: Anti-herpesvirus activity overall; type: cell-based; details: for Anti-herpesvirus activity (in words): HEL cells
HSV = assay: organism not typed; type: cell-based, herpes simplex virus; details: for EC50: HEL, read-out: EC50 range against HSV
VZV = assay: microbe, parasite or virus in culture; type: cell-based, varicella-zoster virus; details: for EC50: Human alphaherpesvirus 3, HEL, read-out: EC50 range against VZV
HCMV = assay: microbe, parasite or virus in culture; type: cell-based, human cytomegalovirus; details: for EC50: read-out: EC50 range against HCMV
HSV-2 (G) = assay: Antiviral CPE inhibition, HSV-2; type: cell-based, herpes simplex virus type 2; details: read-out: EC50 (HEL) HSV-2 (G); HEL cells
HSV-1 TK− KOS ACVr = assay: Antiviral CPE inhibition, TK- HSV-1 KOS ACVr in HEL cells; type: cell-based, herpes simplex virus type 1; details: read-out: EC50 (HEL) HSV-1 TK− KOS ACVr
VZV TK+ (Oka) = type: cell-based, varicella-zoster virus; details: read-out: EC50 (HEL) VZV TK+ (Oka); HEL cells
VZV TK− (07-1) = type: cell-based, varicella-zoster virus; details: read-out: EC50 (HEL) VZV TK− (07-1)
HCMV (AD-169) = assay: Antiviral assay, HCMV; type: cell-based, human cytomegalovirus; details: read-out: EC50 (HEL) HCMV (AD-169); HEL cells
HCMV (Davis) = assay: Antiviral assay, HCMV; type: cell-based, human cytomegalovirus; details: read-out: EC50 (HEL) HCMV (Davis); HEL cells
Vaccinia virus = assay: microbe, parasite or virus in culture; type: cell-based, vaccinia virus Lederle strain; details: for EC50: read-out: EC50 (HEL) Vaccinia virus
[3] = test system: human embryonic lung (HEL) cells; assay: Cytostatic activity, inhibition of HEL cell growth; type: cell-based

Nc1nc2c(ncn2COCCO)c(=O)[nH]1 [Acyclovir, reference compound]
Cytotoxicity MCC (minimum cytotoxic concentration) [1]: >440 µM

CCCCCCCCCCCCCCCCCCOCCNc1ncn(CCOCP(=O)(OCCOCCCCCCCCCCCCCCCCCC)OCCOCCCCCCCCCCCCCCCCCC)c(=O)n1 [Compound 16, Bis(octadecyloxyethyl) ester of N^4-octadecyloxyethyl-1-[2-(phosphonomethoxy)ethyl]-5-azacytosine]
Cytotoxicity MCC (minimum cytotoxic concentration) [1]: 100 µM | Anti-herpesvirus activity (in words) [2]: deprived of anti-herpesvirus properties

COP(=O)(O)COCCn1cnc(N)nc1=O [Compound 14, Methyl ester of [2-(phosphonomethoxy)ethyl]-5-azacytosine]
Cytotoxicity MCC (minimum cytotoxic concentration) [1]: >100 µM | Anti-herpesvirus activity (in words) [2]: lacked activity against herpesviruses

CCOC(=O)[C@H](Cc1ccccc1)NP(=O)(COCCn1cnc(N)nc1=O)N[C@@H](Cc1ccccc1)C(=O)OCC [Compound 12, Bis(L-phenylalanineethyl ester) prodrug of 1-[2-(phosphonomethoxy)ethyl]-5-azacytosine]
Cytotoxicity MCC (minimum cytotoxic concentration) [1]: >100 µM | EC50 (HSV): 32 to 42 µM | EC50 (VZV): 27 to 29 µM | EC50 (HCMV; Human betaherpesvirus 5, HEL): 7.5 to 15.5 µM

CC(C)OC(=O)OCOP(=O)(COCCn1cnc(N)nc1=O)OCOC(=O)OC(C)C [Compound 7, Bis[(isopropoxycarbonyl)oxymethyl] ester of 1-[2-(phosphonomethoxy)ethyl]-5-azacytosine]
Cytotoxicity MCC (minimum cytotoxic concentration) [1]: >100 µM

Nc1nc(O)c2ncn(COC(CO)CO)c2n1 [Ganciclovir, reference compound]
Cytotoxicity MCC (minimum cytotoxic concentration) [1]: >350 µM

CCCCCCCCCCCCCCCCCCOCCOP(=O)(COCCn1cnc(N)nc1=O)OCCOCCCCCCCCCCCCCCCCCC [Compound 15, Bis(octadecyloxyethyl) ester of 1-[2-(phosphonomethoxy)ethyl]-5-azacytosine]
Cytotoxicity MCC (minimum cytotoxic concentration) [1]: 20 µM | Anti-herpesvirus activity (in words) [2]: deprived of anti-herpesvirus properties

CCOC(=O)[C@H](Cc1ccccc1)NP(=O)(O)COCCn1cnc(N)nc1=O [Compound 13, (L-Phenylalanine ethyl ester) prodrug of 1-[2-(phosphonomethoxy)ethyl]-5-azacytosine]
Cytotoxicity MCC (minimum cytotoxic concentration) [1]: >100 µM | Anti-herpesvirus activity (in words) [2]: lacked activity against herpesviruses

Bis[(isopropoxycarbonyl)oxymethyl] ester of 2,4-diamino-6-[2-(phosphonomethoxy)ethoxy]pyrimidine [Compound 4]
EC50 (HSV-2 (G)): 1.01 ± 0.86 µM | EC50 (HSV-1 TK− KOS ACVr): 3.7 ± 3 µM | EC50 (VZV TK+ (Oka)): 0.32 ± 0.37 µM | EC50 (VZV TK− (07-1)): 0.29 ± 0.19 µM | EC50 (HCMV (AD-169)): 90.1 µM | EC50 (HCMV (Davis)): 86.3 ± 5.4 µM | Anti-vaccinia virus activity (in words) (Vaccinia virus): very low anti-vaccinia virus activity without selectivity | EC50 (Vaccinia virus): 160 ± 60 µM | Cytotoxicity MCC (minimum cytotoxic concentration) [1]: >202 µM | Fold more active than parental drug PMEO-DAPy (HSV) (HSV): 6–20 fold | Selectivity index (SI, ratio CC50/EC50) HSV (HSV; range over HSV strains): 4–15 | Fold more active than parental drug PMEO-DAPy (VZV) (VZV): 3–16 fold | Selectivity index (SI, ratio CC50/EC50) VZV (VZV; range over VZV strains): 15–52 | Selectivity index (SI, ratio CC50/EC50) HCMV (HCMV; range over HCMV strains): ≤ 1 | EC50 (HCMV; range over HCMV strains, HEL cells): 86 to 90 µM

CC(C)(C)C(=O)OCOP(=O)(COCCOc1cc(N)nc(N)n1)OCOC(=O)C(C)(C)C [Compound 2, Bis(pivaloyloxymethyl) ester of 2,4-diamino-6-[2-(phosphonomethoxy)ethoxy]pyrimidine]
EC50 (Vaccinia virus; Orthopoxvirus vaccinia, HEL): ≥ 20 µM | Cytotoxicity MCC (minimum cytotoxic concentration) [1]: ≥100 µM | Fold more cytostatic than PMEO-DAPy [3]: 5.5 fold | Fold more active than PMEO-DAPy (anti-herpesvirus activity) [2]: 2 to 4.5 fold

CC(C)OC(=O)OCOP(=O)(O)COCCn1cnc(N)nc1=O [Compound 8, (Isopropoxycarbonyl)oxymethyl ester of 1-[2-(phosphonomethoxy)ethyl]-5-azacytosine]
Cytotoxicity MCC (minimum cytotoxic concentration) [1]: >100 µM | Anti-herpesvirus activity (in words) [2]: minimal or no anti-herpesvirus activities

CC(C)(C)C(=O)OCOP(=O)(COCCn1cnc(N)nc1=O)OCOC(=O)C(C)(C)C [Compound 9, Bis(pivaloyloxymethyl) ester of 1-[2-(phosphonomethoxy)ethyl]-5-azacytosine]
Cytotoxicity MCC (minimum cytotoxic concentration) [1]: 209 µM | EC50 (HSV): 0.7 to 1.3 µM | Selectivity index (SI, ratio CC50/EC50) HSV (HSV; range over HSV strains): 37–63 | EC50 (VZV): 0.7 to 1.3 µM | Selectivity index (SI, ratio CC50/EC50) VZV (VZV; range over VZV strains): 35–71 | EC50 (HCMV; Human betaherpesvirus 5, HEL): 1 to 3 µM | Selectivity index (SI, ratio CC50/EC50) HCMV (HCMV; range over HCMV strains): 14–47

CC(C)(C)C(=O)OCOP(=O)([O-])COCCOc1cc(N)nc(N)n1.[Na+] [Compound 3, Pivaloyloxymethyl ester of 2,4-diamino-6-[2-(phosphonomethoxy)ethoxy]-pyrimidine]
Cytotoxicity MCC (minimum cytotoxic concentration) [1]: >100 µM | Anti-herpesvirus activity (in words) [2]: potency and selectivity virtually identical to PMEO-DAPy

Nc1ccn(C[C@@H](CO)OCP(=O)(O)O)c(=O)n1.O.O [Cidofovir, reference compound]
Cytotoxicity MCC (minimum cytotoxic concentration) [1]: ≥300 µM

Nc1cc(OCCOCP(=O)(O)O)nc(N)n1 [Compound 1, 2,4-diamino-6-[2-(phosphonomethoxy)ethoxy]pyrimidine]
Cytotoxicity MCC (minimum cytotoxic concentration) [1]: >100 µM | Selectivity index (SI, ratio CC50/EC50) HSV (HSV; range over HSV strains): 1.7–4.5 | Selectivity index (SI, ratio CC50/EC50) VZV (VZV; range over VZV strains): 19–44

CCOC(=O)[C@H](C)NP(=O)(COCCOc1cc(N)nc(N)n1)N[C@@H](C)C(=O)OCC [Compound 5, Bis(L-alanineethyl ester) prodrug of 2,4-diamino-6-[2-(phosphonomethoxy)ethoxy]pyrimidine]
Anti-vaccinia virus activity (in words) (Vaccinia virus): very low anti-vaccinia virus activity without selectivity | Cytotoxicity MCC (minimum cytotoxic concentration) [1]: 217 µM | Fold more active than parental drug PMEO-DAPy (HSV) (HSV): 6–20 fold | Selectivity index (SI, ratio CC50/EC50) HSV (HSV; range over HSV strains): 4–15 | Fold more active than parental drug PMEO-DAPy (VZV) (VZV): 3–16 fold | Selectivity index (SI, ratio CC50/EC50) VZV (VZV; range over VZV strains): 15–52 | EC50 (HCMV; Human betaherpesvirus 5, HEL): 17 to 29 µM | Selectivity index (SI, ratio CC50/EC50) HCMV (HCMV; range over HCMV strains): ≤ 1

CCCCCCCCCCCCCCCCCCOCCOP(=O)(O)COCCn1cnc(N)nc1=O [Compound 17, Octadecyloxyethyl ester of 1-[2-(phosphonomethoxy)ethyl]-5-azacytosine]
Cytotoxicity MCC (minimum cytotoxic concentration) [1]: 100 ± 0 µM | EC50 (HSV): 0.15 to 0.35 µM | Selectivity index (SI, ratio CC50/EC50) HSV (HSV; range over HSV strains): 226–528 | EC50 (VZV): 0.32 to 0.8 µM | Selectivity index (SI, ratio CC50/EC50) VZV (VZV; range over VZV strains): 100–248 | EC50 (HCMV; Human betaherpesvirus 5, HEL): 0.24 to 1.12 µM | Selectivity index (SI, ratio CC50/EC50) HCMV (HCMV; range over HCMV strains): 71–330

O=c1[nH]c(=O)n([C@H]2C[C@H](O)[C@@H](CO)O2)cc1/C=C/Br [Brivudin, reference compound]
Cytotoxicity MCC (minimum cytotoxic concentration) [1]: 300 µM

CC(C)(C)C(=O)OCOP(=O)([O-])COCCn1cnc(N)nc1=O.[Na+] [Compound 10, Pivaloyloxymethyl ester of 1-[2-(phosphonomethoxy)ethyl]-5-azacytosine, sodium salt]
Cytotoxicity MCC (minimum cytotoxic concentration) [1]: >275 µM | Anti-herpesvirus activity (in words) [2]: minimal or no anti-herpesvirus activities

CCCCCCCCCCCCCCCCNC(=O)[C@@H](N)Cc1ccc(OP(=O)(COCCn2cnc(N)nc2=O)Oc2ccc(C[C@H](N)C(=O)NCCCCCCCCCCCCCCCC)cc2)cc1 [Compound 23, Bis(Hexadecylamido-L-tyrosyl) ester of 1-[2-(phosphonomethoxy)ethyl]-5-azacytosine]
Cytotoxicity MCC (minimum cytotoxic concentration) [1]: 60 ± 57 µM | Selectivity index (SI, ratio CC50/EC50) HSV (HSV): 45–68 | Selectivity index (SI, ratio CC50/EC50) VZV (VZV): 47–93 | Selectivity index (SI, ratio CC50/EC50) HCMV (HCMV): 13–56
